According to patent publication US20030096015A1, “Cytogenic/nucleogenic healing” (priority 1997, published 2003):

System: epithelial cells
Format: cell-based, human

OC[C@H]1O[C@@](CO)(O[C@H]2O[C@H](CO)[C@@H](O)[C@H](O)[C@H]2O)[C@@H](O)[C@@H]1O [5% Sucrose, sucrose]
time after which sticky clumps were invaded by fungi and bacteria (0.5% solution): 48 h
cell replication / tissue formation observed (0.5% solution, isolated epithelial cells, ambient temperature): Rapid cell replication was observed in form of sticky clumps with no distinct differentiation into tissue formation
Potential for Tissue Growth (ambient temperature (24° C.)): sticky lump
